From PubChem BioAssay AID2060607 (Molecular Pharmacology Branch, DTP, NCI, 2025)
Several values for one entry are separate records, joined by “and”; a condition that tells them apart may be missing. Identical values can stand only once.

Test system: 876862-298-R-J1-PDC complex spheroids, viability % test/control
Assay: Anticancer human tumor 876862-298-R-J1-PDC patient-derived endometrial carcinoma cell line growth inhibition [CLK]
Details: for viability, T/C: stronger effect = lower value; active means viability on the fitted dose curve at most 10% of control; inactive means the rest
Outline: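 Patient-derived tumor cells grown as complex spheroids with HUVEC endothelial cells and mesenchymal stem cells, treated with drug combinations. Concentrations descend in half-log steps from near clinical Cmax, or from 10 microM if Cmax unknown.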

[1] = curve of first compound, second compound 0.0316 µM
[2] = curve of first compound, second compound 0.1 µM
[3] = curve of first compound, second compound 0.316 µM
[4] = curve of first compound, second compound 1 µM
[5] = curve of first compound, second compound 3.16 µM
[6] = curve of first compound, second compound 10 µM
[7] = second compound 0.0316 µM, first compound 0.0316 µM
[8] = second compound 0.0316 µM, first compound 0.1 µM
[9] = second compound 0.0316 µM, first compound 0.316 µM
[10] = second compound 0.0316 µM, first compound 1 µM
[11] = second compound 0.0316 µM, first compound 3.16 µM
[12] = second compound 0.0316 µM, first compound 10 µM
[13] = second compound 0.1 µM, first compound 0.0316 µM
[14] = second compound 0.1 µM, first compound 0.1 µM
[15] = second compound 0.1 µM, first compound 0.316 µM
[16] = second compound 0.1 µM, first compound 1 µM
[17] = second compound 0.1 µM, first compound 3.16 µM
[18] = second compound 0.1 µM, first compound 10 µM
[19] = second compound 0.316 µM, first compound 0.0316 µM
[20] = second compound 0.316 µM, first compound 0.1 µM
[21] = second compound 0.316 µM, first compound 0.316 µM
[22] = second compound 0.316 µM, first compound 1 µM
[23] = second compound 0.316 µM, first compound 3.16 µM
[24] = second compound 0.316 µM, first compound 10 µM
[25] = second compound 1 µM, first compound 0.0316 µM
[26] = second compound 1 µM, first compound 0.1 µM
[27] = second compound 1 µM, first compound 0.316 µM
[28] = second compound 1 µM, first compound 1 µM
[29] = second compound 1 µM, first compound 3.16 µM
[30] = second compound 1 µM, first compound 10 µM
[31] = second compound 3.16 µM, first compound 0.0316 µM
[32] = second compound 3.16 µM, first compound 0.1 µM
[33] = second compound 3.16 µM, first compound 0.316 µM
[34] = second compound 3.16 µM, first compound 1 µM
[35] = second compound 3.16 µM, first compound 3.16 µM
[36] = second compound 3.16 µM, first compound 10 µM
[37] = second compound 10 µM, first compound 0.0316 µM
[38] = second compound 10 µM, first compound 0.1 µM
[39] = second compound 10 µM, first compound 0.316 µM
[40] = second compound 10 µM, first compound 1 µM
[41] = second compound 10 µM, first compound 3.16 µM
[42] = second compound 10 µM, first compound 10 µM
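Further: spheroids exposed to drugs for 7 days before readout.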
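Wherever viability, T/C is given: 100% = DMSO vehicle control wells.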

CC1(C)CCC(CN2CCN(c3ccc(C(=O)NS(=O)(=O)c4ccc(NCC5CCOCC5)c([N+](=O)[O-])c4)c(Oc4cnc5[nH]ccc5c4)c3)CC2)=C(c2ccc(Cl)cc2)C1 + CNC(=O)c1ccc(Nc2nc(OC3CCCC3)c3c(-c4ccc5nc(C)oc5c4)c[nH]c3n2)c(OC)c1
5400 nM: IC50 [1]
inactive: viability, T/C [7] 69.5% | viability, T/C [8] 88.6% | viability, T/C [9] 83% | viability, T/C [10] 90.6% | viability, T/C [11] 86.1% | viability, T/C [12] 11.2% | viability, T/C [13] 48.2% | viability, T/C [14] 52.2% | viability, T/C [15] 52.3% | viability, T/C [16] 49.2% | viability, T/C [17] 39.2% | viability, T/C [18] 11.8% | viability, T/C [19] 45.1% | viability, T/C [20] 39.5% | viability, T/C [21] 47.9% | viability, T/C [22] 46.1% | viability, T/C [23] 35.9% | viability, T/C [25] 37.7% | viability, T/C [26] 34.4% | viability, T/C [27] 32.3% | viability, T/C [28] 33.2% | viability, T/C [29] 26.4% | viability, T/C [30] 9.54% | viability, T/C [31] 23.6% | viability, T/C [32] 23.8% | viability, T/C [33] 25.4% | viability, T/C [34] 21.6% | viability, T/C [35] 19.4% | viability, T/C [36] 5.35% | viability, T/C [37] 19.9% | viability, T/C [38] 19.8% | viability, T/C [39] 17.6% | viability, T/C [40] 20.3% | viability, T/C [41] 14.9% | viability, T/C [42] 5.66%
< 31.6 nM: IC50 [3] | IC50 [4] | IC50 [5] | IC50 [6]
active: viability, T/C [24] 9.32%
473 nM: IC50 [2]

CC(C)CC(NC(=O)C(Cc1ccccc1)NC(=O)c1cnccn1)B(O)O (configuration not stated)
inactive: viability, T/C (compound 0.000949 µM) 116% and 88.5%
active: viability, T/C (compound 0.00949 µM) 0.57% and 0.51% | viability, T/C (compound 0.03 µM) 0.45% and 0.53% | viability, T/C (compound 0.0949 µM) 0.3% and 0.59% | viability, T/C (compound 0.3 µM) 0.2% and 0.9%
13.2% and 7.38%: viability, T/C (compound 0.003 µM)
1.99 nM and 1.64 nM: IC50 (curve of compound)

CC1(C)CCC(CN2CCN(c3ccc(C(=O)NS(=O)(=O)c4ccc(NCC5CCOCC5)c([N+](=O)[O-])c4)c(Oc4cnc5[nH]ccc5c4)c3)CC2)=C(c2ccc(Cl)cc2)C1
6490 nM and 6290 nM: IC50 (curve of compound)
inactive: viability, T/C (compound 0.0316 µM) 102% and 88.4% | viability, T/C (compound 0.1 µM) 92% and 101% | viability, T/C (compound 0.316 µM) 105% and 99.1% | viability, T/C (compound 1 µM) 102% and 106% | viability, T/C (compound 3.16 µM) 111% and 121% | viability, T/C (compound 10 µM) 18.4% and 14.2%

COc1ccc([C@@H](O)c2cc(-c3ncnc4cc(N5CCOCC5)ccc34)c(F)cc2Cl)nn1
9980 nM and 5390 nM: IC50 (curve of compound)
inactive: viability, T/C (compound 0.0316 µM) 109% and 103% | viability, T/C (compound 0.1 µM) 88.9% and 106% | viability, T/C (compound 0.316 µM) 108% and 101% | viability, T/C (compound 1 µM) 98.5% and 89.7% | viability, T/C (compound 3.16 µM) 73.1% and 69% | viability, T/C (compound 10 µM) 49.9% and 28.5%

O=c1[nH]cc(F)c(=O)[nH]1 + CN1CCN(c2cc(C(=O)Nc3cc4cc(-c5cnn(C)c5)ccc4cn3)ccn2)CC1
active: viability, T/C [19] 3.11% | viability, T/C [20] 2.75% | viability, T/C [21] 3.62% | viability, T/C [22] 2.92% | viability, T/C [23] 2.73% | viability, T/C [24] 2.79% | viability, T/C [25] 0.65% | viability, T/C [26] 0.89% | viability, T/C [27] 0.91% | viability, T/C [28] 0.83% | viability, T/C [29] 0.68% | viability, T/C [30] 0.7% | viability, T/C [31] 0.68% | viability, T/C [32] 1.36% | viability, T/C [33] 1.24% | viability, T/C [34] 0.98% | viability, T/C [35] 1.14% | viability, T/C [36] 1.44% | viability, T/C [37] 0.57% | viability, T/C [38] 0.53% | viability, T/C [39] 0.54% | viability, T/C [40] 0.77% | viability, T/C [41] 0.83% | viability, T/C [42] 0.73%
inactive: viability, T/C [7] 94.5% | viability, T/C [8] 89.6% | viability, T/C [9] 88.8% | viability, T/C [10] 83% | viability, T/C [11] 55.9% | viability, T/C [12] 49.4% | viability, T/C [13] 41.8% | viability, T/C [14] 52.2% | viability, T/C [15] 47.8% | viability, T/C [16] 41.9% | viability, T/C [17] 31.5% | viability, T/C [18] 29.9%
8770 nM: IC50 [1]
< 31.6 nM: IC50 [2] | IC50 [3] | IC50 [4] | IC50 [5] | IC50 [6]

CCc1c2c(nc3ccc(O)cc13)-c1cc3c(c(=O)n1C2)COC(=O)[C@]3(O)CC + CN1CCN(c2cc(C(=O)Nc3cc4cc(-c5cnn(C)c5)ccc4cn3)ccn2)CC1
active: viability, T/C (second compound 0.0316 µM, first compound 0.01 µM) 8.53% | viability, T/C [7] 7.87% | viability, T/C [8] 4.18% | viability, T/C [9] 3.57% | viability, T/C [10] 2.49% | viability, T/C (second compound 0.1 µM, first compound 0.01 µM) 7.89% | viability, T/C [13] 5.72% | viability, T/C [14] 4.71% | viability, T/C [15] 3.63% | viability, T/C [16] 2.79% | viability, T/C (second compound 0.316 µM, first compound 0.00316 µM) 1.72% | viability, T/C (second compound 0.316 µM, first compound 0.01 µM) 1.95% | viability, T/C [19] 1.32% | viability, T/C [20] 0.72% | viability, T/C [21] 0.73% | viability, T/C [22] 0.47% | viability, T/C (second compound 1 µM, first compound 0.00316 µM) 0.79% | viability, T/C (second compound 1 µM, first compound 0.01 µM) 0.82% | viability, T/C [25] 1.38% | viability, T/C [26] 1.51% | viability, T/C [27] 0.71% | viability, T/C [28] 0.54% | viability, T/C (second compound 3.16 µM, first compound 0.00316 µM) 0.79% | viability, T/C (second compound 3.16 µM, first compound 0.01 µM) 0.71% | viability, T/C [31] 0.85% | viability, T/C [32] 0.75% | viability, T/C [33] 0.6% | viability, T/C [34] 0.43% | viability, T/C (second compound 10 µM, first compound 0.00316 µM) 0.44% | viability, T/C (second compound 10 µM, first compound 0.01 µM) 0.53% | viability, T/C [37] 0.53% | viability, T/C [38] 0.4% | viability, T/C [39] 0.55% | viability, T/C [40] 0.49%
inactive: viability, T/C (second compound 0.0316 µM, first compound 0.00316 µM) 25.1% | viability, T/C (second compound 0.1 µM, first compound 0.00316 µM) 14.1%
< 3.16 nM: IC50 [1] | IC50 [2] | IC50 [3] | IC50 [4] | IC50 [5] | IC50 [6]
